Measured values reported in patent US6686371B2, “Non-steroidal, tetracylic compounds for estrogen-related treatments” (Akzo Nobel N.V., priority 2000, dated 2004).

Legend:
[1] = target: T1, human estrogen receptor β receptor (hERβ) (Homo sapiens, UniProt Q92731); assay: transactivation assay, estrogenic activity, recombinant CHO cells co-transfected with hERβ, rat oxytocin promoter and luciferase reporter; assay type: cell-based; details: for ERβ Transactivation (Potency Transactivation (ERβ)): potency % relative to 17β-estradiol, CHO cells, hERβ, luciferase reporter; for β/α ratio Transactivation: ratio of transactivation potency hERβ over hERα
T1 construct: expressed in transfected cells; host or cells: Chinese hamster ovary (CHO) cells, stably co-transfected with hERβ, rat oxytocin promoter and luciferase reporter
T1 sequence (Q92731 whole entry): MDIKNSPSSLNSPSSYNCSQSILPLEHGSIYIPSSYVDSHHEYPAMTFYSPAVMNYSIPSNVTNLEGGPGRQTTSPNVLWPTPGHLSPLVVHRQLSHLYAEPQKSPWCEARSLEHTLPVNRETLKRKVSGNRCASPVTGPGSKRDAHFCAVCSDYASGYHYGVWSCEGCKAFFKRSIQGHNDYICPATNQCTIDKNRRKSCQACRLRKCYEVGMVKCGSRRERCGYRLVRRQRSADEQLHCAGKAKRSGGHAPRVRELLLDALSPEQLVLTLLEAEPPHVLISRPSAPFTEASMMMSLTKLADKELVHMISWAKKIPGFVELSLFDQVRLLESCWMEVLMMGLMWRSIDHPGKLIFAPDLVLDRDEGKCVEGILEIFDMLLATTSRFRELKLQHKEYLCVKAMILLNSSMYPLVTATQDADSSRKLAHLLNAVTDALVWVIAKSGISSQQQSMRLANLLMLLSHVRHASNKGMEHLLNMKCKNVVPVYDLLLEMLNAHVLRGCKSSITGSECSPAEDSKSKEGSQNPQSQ
Procedure: (§1) Compounds are tested for their estrogen receptor activity in a binding assay and in a transactivation assay.
The estrogenic and antiestrogenic activity of compounds is determined in an in vitro bioassay with recombinant Chinese hamster ovary (CHO) cells stably co-transfected with the human estrogen receptor α (hERα) or β receptor (hERβ), the rat oxytocin promoter (RO) and the luciferase reporter gene (LUC). The estrogenic activity (potency ratio) of a test compound to stimulate the transactivation of the enzyme luciferase mediated via the estrogen receptors hERα or hERβ is compared with the standard estrogen estradiol. The antiestrogenic activity (potency ratio) of a test compound to inhibit the transactivation of the enzyme luciferase mediated via the estrogen receptors hERα or hERβ by the estrogen estradiol is compared with the standard ICI 164.384 (=(7α,17β)-N-butyl-3,17-dihydroxy-N-methylestra-1,3,5(10)-triene-7-undecanamide).

[2] = target: T1, human estrogen receptor β receptor (hERβ); assay: competitive binding to cytoplasmic human estrogen receptor β from recombinant CHO cells; details: % relative to 17β-estradiol, cytosol of recombinant CHO cells; for ERβ Binding (Potency Binding (ERβ)): Table 1; for Binding ERβ: Table 2
Procedure: as §1
(§2) Determination of competitive binding to cytoplasmic human estrogen receptor α or β from recombinant CHO cells is used to estimate the relative affinity (potency ratio) of a test compound for estrogen receptors present in the cytosol of recombinant Chinese hamster ovary (CHO) cells, stably transfected with the human estrogen receptor α (hERα) or β receptor (hERβ), as compared with estradiol (E2).

[3] = target: T2, human estrogen receptor α (hERα) (Homo sapiens, UniProt P03372); assay: competitive binding to cytoplasmic human estrogen receptor α from recombinant CHO cells; details: % relative to 17β-estradiol; cytosol of recombinant CHO cells; Table 2
T2 construct: expressed in transfected cells; host or cells: cytosol of recombinant Chinese hamster ovary (CHO) cells stably transfected with hERα
T2 sequence (P03372 1-595): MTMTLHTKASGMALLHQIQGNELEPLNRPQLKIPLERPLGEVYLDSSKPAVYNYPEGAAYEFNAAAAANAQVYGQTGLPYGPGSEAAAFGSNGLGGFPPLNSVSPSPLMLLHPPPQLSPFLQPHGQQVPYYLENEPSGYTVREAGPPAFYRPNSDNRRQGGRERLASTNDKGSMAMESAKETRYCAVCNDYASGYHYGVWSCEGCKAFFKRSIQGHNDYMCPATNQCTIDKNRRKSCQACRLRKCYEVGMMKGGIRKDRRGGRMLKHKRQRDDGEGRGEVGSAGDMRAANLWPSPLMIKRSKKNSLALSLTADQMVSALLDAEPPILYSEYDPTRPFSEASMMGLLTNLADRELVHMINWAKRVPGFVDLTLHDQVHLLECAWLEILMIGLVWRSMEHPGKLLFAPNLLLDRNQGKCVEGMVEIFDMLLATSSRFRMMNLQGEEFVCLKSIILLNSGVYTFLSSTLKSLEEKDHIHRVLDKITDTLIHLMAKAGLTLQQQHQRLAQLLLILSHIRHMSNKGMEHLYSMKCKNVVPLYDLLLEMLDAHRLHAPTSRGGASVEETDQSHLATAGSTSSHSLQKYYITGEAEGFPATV
Procedure: as §1, §2

| Compound | ERβ Transactivation (Potency Transactivation (ERβ)) [1] | β/α ratio Transactivation [1] | ERβ Binding (Potency Binding (ERβ)) [2] | Binding ERβ [2] | Binding ERα [3] | melting point |
| --- | --- | --- | --- | --- | --- | --- |
| Oc1ccc2c(c1)Cc1c-2cc2ccc(O)cc2c1C(F)(F)F [Compound 67e, 2,8-dihydroxy-10-trifluoromethyl-11H-benzo[b]fluorene] | ++ (between 4-10%) | ++ (between 10-30) | +++ (>10%) | – | – | – |
| CCCC(=O)Oc1ccc2c(c1)Cc1c-2nc2ccc(OC(=O)CCC)cc2c1Cl [Compound 2c, Dibutyryl Ester of 10-chloro-2,8-dihydroxy-1H-indeno[1,2-b]quinoline] | ++ (between 4-10%) | ++ (between 10-30) | – | – | – | – |
| Oc1ccc2c(c1)Cc1c-2nc2ccc(O)cc2c1Cl [Compound 7a, 10-chloro-2,8-dihydroxy-11H-indenol[1,2-b]quinoline] | – | – | – | +++ (between 3.5-8%) | − (<0.3%) | – |
| CCCc1c2c(c(Cl)c3ccc(O)cc13)-c1ccc(O)cc1C2 [Compound 22, 2,8-dihydroxy-5-chloro-10-propyl-11H-benzo[b]fluorene] | – | – | – | – | – | 223 to 224 °C |
| Oc1ccc2c(c1)Cc1c-2cc2ccc(O)cc2c1I [Compound 67c, 2,8-dihydroxy-10-iodo-11H-benzo[b]fluorene] | +++ (>10%) | +++ (>30) | +++ (>10%) | – | – | – |
| CCc1c2c(c(CC)c3ccc(O)cc13)-c1ccc(O)cc1C2 [Compound 47, 2,8-dihydroxy-5,10-diethyl-11H-benzo[b]fluorene] | – | – | – | – | – | 255 °C (dec.) |
| Oc1ccc2c(c1)Cc1c-2cc2ccc(O)cc2c1C=C(F)F [Compound 50, 2,8-dihydroxy-10-(2,2-difluoro-ethenyl)-11H-benzo[b]fluorene] | – | – | – | – | – | 211 to 212 °C |
| CC(C)(C)C(=O)Oc1ccc2c(c1)Cc1c-2cc2ccc(OC(=O)C(C)(C)C)cc2c1Cl [Compound 68a, di-pivaloyl Ester of 2,8-dihydroxy-10-chloro-11H-benzo[b]fluorene] | ++ (between 4-10%) | +++ (>30) | – | – | – | – |
| Cc1c(O)ccc2c1Cc1c-2nc2ccc(O)cc2c1Cl [Compound 7c, 10-chloro-1-methyl-2,8-dihydroxy-11H-indeno[1,2-b]quinoline] | – | – | – | ++ (between 1.5-3.5%) | + (between 0.1-1.5%) | – |
| Cc1c2c(cc3ccc(O)cc13)-c1ccc(O)cc1C2 [Compound 67d, 2,8-dihydroxy-10-methyl-11H-benzo[b]fluorene] | + (between 0.1-4%) | ++ (between 10-30) | ++ (between 2-10%) | – | – | 265 °C |
| CCCC(=O)Oc1ccc2c(c1)Cc1c-2nc2ccc(OC(=O)CCC)cc2c1Br [Compound 2d, Dibutyryl Ester of 10-bromo-2,8-dihydroxy-11H-indeno[1,2-b]quinoline] | + (between 0.1-4%) | ++ (between 10-30) | – | – | – | – |
| Oc1ccc2c(c1)Cc1c-2cc2ccc(O)cc2c1Cl [Compound 67a, 2,8-dihydroxy-10-chloro-11H-benzo[b]fluorene] | +++ (>10%) | +++ (>30) | +++ (>10%) | – | – | – |
| CCCc1c2c(c(CCC)c3ccc(O)cc13)-c1ccc(O)cc1C2 [Compound 57, 2,8-dihydroxy-5,10-dipropyl-11H-benzo[b]fluorene] | – | – | – | – | – | 250 °C |
| COc1ccc2c(c1)Cc1c-2nc2ccc(OC)cc2c1Cl [Compound 2a, 10-chloro-2,8-dimethoxy-11H-indeno[1,2-b]quinoline] | ++ (between 4-10%) | + (between 3.5-10) | ++ (between 2-10%) | – | – | – |
| CCc1c2c(c(Cl)c3ccc(O)cc13)-c1ccc(O)cc1C2 [Compound 40, 2,8-dihydroxy-5-chloro-10-ethyl-11H-benzo[b]fluorene] | – | – | – | – | – | 250 to 251 °C |
| 10-chloro-1,1-dimethyl-2,8-dihydroxy-11H-indeno[1,2-b]quinoline [Compound 7d] | – | – | – | – | +++ (between 3.5-8%) | – |
| Oc1ccc2c(c1)Cc1c-2nc2ccc(O)cc2c1Br [Compound 7b, 10-bromo-2,8-dihydroxy-11H-indeno[1,2-b]quinoline] | – | – | – | ++ (between 1.5-3.5%) | − (<0.3%) | – |
| Oc1ccc2nc3c(c(Cl)c2c1)-c1cccc(O)c1CC3 [Compound 8, 12-chloro-4,10-dihydroxy-5,6-dihydro-benz[a]acridine] | – | – | – | ++ (between 1.5-3.5%) | ++ (between 1.5-3.5%) | – |
| Oc1ccc2c(c1)CCc1c-2nc2ccc(O)cc2c1Cl [Compound 10, 7-chloro-3,9-dihydroxy-5,6-dihydro-benz[c]acridine] | – | – | – | ++++ (>8%) | ++++ (>8%) | – |
| Oc1ccc2c(c1)CCc1c-2cc2ccc(O)cc2c1C1CCCC1 [Compound 16, 3,9-dihydroxy-7-cyclopentyl-5,6-dihydro-benz[a]anthracene] | – | – | – | – | – | 233 to 235 °C |
| COc1ccc2c(c1)Cc1c-2nc2ccc(OC)cc2c1Br [Compound 2b, 10-bromo-2,8-dimethoxy-11H-indeno[1,2-b]quinoline] | + (between 0.1-4%) | ++ (between 10-30) | ++ (between 2-10%) | – | – | – |
| Oc1ccc2c(c1)Cc1cc3ccc(O)cc3cc1-2 [Compound 25, 2,7-dihydroxy-11H-benzo[b]fluorene] | + (between 0.1-4%) | − (<3.5) | ++ (between 2-10%) | – | – | – |
| Oc1ccc(-c2c3c(cc4ccc(O)cc24)-c2ccc(O)cc2CC3)cc1 [Compound 16a, 3,9-dihydroxy-7-(4-hydroxyphenyl)-5,6-dihydro-benz[a]anthracene] | – | – | – | – | – | 272 °C |
| Oc1ccc2c(c1)Cc1cc3cc(O)ccc3cc1-2 [Compound 69, 2,8-dihydroxy-11H-benzo[b]fluorene] | + (between 0.1-4%) | + (between 3.5-10) | ++ (between 2-10%) | – | – | – |
| Oc1ccc2c(c1)Cc1c-2cc2ccc(O)cc2c1Br [Compound 67b, 2,8-dihydroxy-10-bromo-11H-benzo[b]fluorene] | +++ (>10%) | +++ (>30) | +++ (>10%) | – | – | – |
| Oc1ccc2c(c1)Cc1cc3cc(O)ccc3c(Cl)c1-2 [Compound 60, 2,8-dihydroxy-5-chloro-11H-benzo[b]fluorene] | +++ (>10%) | +++ (>30) | +++ (>10%) | ++++ (>8%) | ++ (between 1.5-3.5%) | – |
| Oc1ccc2c(c1)Cc1c-2nc2ccc(O)cc2c1-c1ccccc1 [Compound 5, 10-phenyl-2,8-dihydroxy-11H-indeno[1,2-b]quinoline] | − (<0.1%) | – | ++ (between 2-10%) | – | – | – |
| CC1c2cc(O)ccc2-c2c1cc1cc(O)ccc1c2Cl (stereo not drawn) [Compound 54, 2,8-dihydroxy-5-chloro-11-methyl-11H-benzo[b]fluorene] | – | – | – | – | – | 215 to 220 °C |
